The source of these data is patent publication US20240067662A1, “KRAS INHIBITORS” (Bristol-Myers Squibb Company, priority 2022, published 2024).

GMPPNP-loaded KRAS G12C, sequence (P01116 1-188 isoform P01116-2 G12C): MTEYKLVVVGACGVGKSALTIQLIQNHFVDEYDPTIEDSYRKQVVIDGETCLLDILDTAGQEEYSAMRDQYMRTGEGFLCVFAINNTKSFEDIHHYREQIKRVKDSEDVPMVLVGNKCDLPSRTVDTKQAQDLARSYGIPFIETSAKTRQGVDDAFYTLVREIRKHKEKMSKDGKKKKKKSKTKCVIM

The target of the test is GMPPNP-loaded KRAS G12C (Homo sapiens, UniProt P01116, G12C). The experiment in a line: KRAS G12C RAF Disruption Assay (HTRF). It is filed as biochemical. Conditions: recombinant GMPPNP-loaded KRAS G12C (5 nM), 20 min with compound; GST-RAF1 RBD (9 nM); HTRF signal; read-out: KRASG12C RAF Disruption Assay (IC50). On the procedure:
KRAS^G12C RAF Disruption Assay
This is a functional assay that measures activity of compounds against KRAS-G12C^(ON), i.e., the active form of KRAS G12C. Recombinant GMPPNP-loaded KRAS G12C (5 nM) was treated with compound at room temperature for 20 minutes in assay buffer (50 mM Tris pH 7.5, 100 mM NaCl, 1 mM MgCl2, 1 mM DTT, 100ug/ml BSA). Recombinant GST-RAF1 RBD (9 nM) was added, and the reaction mixture was incubated for 20 minutes. SA-Tb (0.25 nM) was added, and the reaction mixture was incubated for 3 hours. HTRF signal was measured (PerkinElmer Envision), the signal ratio (λem 520/λem 495) was calculated, and IC50 values were calculated from the dose-response curve.
For `C#Cc1cccc2cccc(-c3ncc4c(N5CCN(C(=O)/C(Cl)=C/c6ccccn6)CC5)nc(OC[C@@]56CCCN5C[C@H](F)C6)nc4c3F)c12` [Compound 126, (Z)-2-chloro-1-(4-(7-(8-ethynylnaphthalen-1-yl)-8-fluoro-2-(((2R, 7aS)-2-fluorotetrahydro-1H-pyrrolizin-7a(5H)-yl)methoxy)pyrido[4,3-d]pyrimidin-4-yl)piperazin-1-yl)-3-(pyridin-2-yl)prop-2-en-1-one], the IC50 is 47000 nM. With `N#CC[C@H]1CN(c2nc(OC[C@@]34CCCN3C[C@H](F)C4)nc3c(F)c(-c4cccc(O)c4)ncc23)CCN1C(=O)/C(F)=C/c1nccs1` [Example 72, 2-((S)-4-(8-fluoro-2-(((2R, 7aS)-2-fluorotetrahydro-1H-pyrrolizin-7a(5H)-yl)methoxy)-7-(3-hydroxyphenyl)pyrido[4,3-d]pyrimidin-4-yl)-1-((Z)-2-fluoro-3-(thiazol-2-yl)acryloyl)piperazin-2-yl)acetonitrile] the figure was 440 nM; with `N#CC[C@H]1CN(c2nc(OC[C@@]34CCCN3C[C@H](F)C4)nc3c(F)c(-c4ccccc4C(F)(F)F)ncc23)CCN1C(=O)/C(F)=C/c1ccccn1` [Example 33, 2-((S)-4-(8-fluoro-2-(((2R, 7aS)-2-fluorotetrahydro-1H-pyrrolizin-7a(5H)-yl)methoxy)-7-(2-(trifluoromethyl)phenyl)pyrido[4,3-d]pyrimidin-4-yl)-1-((Z)-2-fluoro-3-(pyridin-2-yl)acryloyl)piperazin-2-yl)acetonitrile], 75 nM. As for `C#Cc1cccc2cccc(-c3ncc4c(N5CCN(C(=O)/C(F)=C/c6cccnn6)CC5)nc(OC[C@@]56CCCN5C[C@H](F)C6)nc4c3F)c12` [Compound 127, (Z)-1-(4-(7-(8-ethynylnaphthalen-1-yl)-8-fluoro-2-(((2R, 7aS)-2-fluorotetrahydro-1H-pyrrolizin-7a(5H)-yl)methoxy)pyrido[4,3-d]pyrimidin-4-yl)piperazin-1-yl)-2-fluoro-3-(pyridazin-3-yl)prop-2-en-1-one], the figure is 10 nM; as for `CN1CCC[C@H]1COc1nc(N2CCN(C(=O)/C(F)=C/c3ccccn3)[C@@H](CC#N)C2)c2cnc(-c3cccc4ccccc34)c(F)c2n1` [Compound 19B, 2-((S)-4-(8-fluoro-2-(((S)-1-methylpyrrolidin-2-yl)methoxy)-7-(naphthalen-1-yl)pyrido[4,3-d]pyrimidin-4-yl)-1-((Z)-2-fluoro-3-(pyridin-2-yl)acryloyl)piperazin-2-yl)acetonitrile], 270 nM. Take `C#Cc1cccc2cccc(-c3ncc4c(N(C)C5CCN(C(=O)/C(F)=C/c6ccccn6)CC5)nc(OC[C@@]56CCCN5C[C@H](F)C6)nc4c3F)c12` [Compound 131, (Z)-1-(4-((7-(8-ethynylnaphthalen-1-yl)-8-fluoro-2-(((2R, 7aS)-2-fluorotetrahydro-1H-pyrrolizin-7a(5H)-yl)methoxy)pyrido[4,3-d]pyrimidin-4-yl)(methyl)amino)piperidin-1-yl)-2-fluoro-3-(pyridin-2-yl)prop-2-en-1-one]: the IC50 turned out to be 4200 nM. With `C#Cc1c(F)ccc2cc(O)cc(-c3ncc4c(N5CCN(C(=O)/C(F)=C/c6ccccn6)CC5)nc(OC[C@@H]5CCCN5CCCN=[N+]=[N-])nc4c3F)c12` [Compound 111, (S,Z)-1-(4-(2-((1-(3-azidopropyl)pyrrolidin-2-yl)methoxy)-7-(8-ethynyl-7-fluoro-3-hydroxynaphthalen-1-yl)-8-fluoropyrido[4,3-d]pyrimidin-4-yl)piperazin-1-yl)-2-fluoro-3-(pyridin-2-yl)prop-2-en-1-one], the IC50 turned out to be 11 nM. As to `C#Cc1c(F)ccc2cc(O)cc(-c3ncc4c(N5C[C@H]6CC[C@@H](C5)N6C(=O)/C(F)=C/c5ncccn5)nc(OC[C@@]56CCCN5C[C@H](F)C6)nc4c3F)c12` [Compound 7, (Z)-1-((1R, 5S)-3-(7-(8-ethynyl-7-fluoro-3-hydroxynaphthalen-1-yl)-8-fluoro-2-(((2R, 7aS)-2-fluorotetrahydro-1H-pyrrolizin-7a(5H)-yl)methoxy)pyrido[4,3-d]pyrimidin-4-yl)-3,8-diazabicyclo[3.2.1]octan-8-yl)-2-fluoro-3-(pyrimidin-yl)prop-2-en-1-one], the IC50 turned out to be 16 nM. For the compound `CN1CCC[C@H]1COc1nc(N2CCN(C(=O)/C(F)=C/c3ncccn3)[C@@H](CC#N)C2)c2cnc(-c3cccc4cccc(Cl)c34)c(F)c2n1` [Compound 20, 2-((S)-4-(7-(8-chloronaphthalen-1-yl)-8-fluoro-2-(((S)-1-methylpyrrolidin-2-yl)methoxy)pyrido[4,3-d]pyrimidin-4-yl)-1-((Z)-2-fluoro-3-(pyrimidin-2-yl)acryloyl)piperazin-2-yl)acetonitrile], the IC50 stood at 89 nM. As for `C#Cc1cccc2cccc(-c3nc(OC)c4c(N5CCN(C(=O)/C(F)=C/c6ccccn6)CC5)nc(OC[C@@]56CCCN5C[C@H](F)C6)nc4c3F)c12` [Compound 109, (Z)-1-(4-(7-(8-ethynylnaphthalen-1-yl)-8-fluoro-2-(((2R, 7aS)-2-fluorotetrahydro-1H-pyrrolizin-7a(5H)-yl)methoxy)-5-methoxypyrido[4,3-d]pyrimidin-4-yl)piperazin-1-yl)-2-fluoro-3-(pyridin-2-yl)prop-2-en-1-one], the IC50 is 240 nM.

As to `C#Cc1cccc2cccc(-c3ncc4c(N5CCC6C5CCN6C(=O)/C(F)=C/c5ccccn5)nc(OC[C@@]56CCCN5C[C@H](F)C6)nc4c3F)c12` (single isomer, unassigned) [Compound 107], the IC50 was 5600 nM. With `C#Cc1c(F)ccc2cc(O)cc(-c3ncc4c(N5C[C@H]6CC[C@@H](C5)N6C(=O)/C(F)=C/c5ccc(C)cn5)nc(OC[C@@]56CCCN5C[C@H](F)C6)nc4c3F)c12` [Compound 6, (Z)-1-((1R, 5S)-3-(7-(8-ethynyl-7-fluoro-3-hydroxynaphthalen-1-yl)-8-fluoro-2-(((2R, 7aS)-2-fluorotetrahydro-1H-pyrrolizin-7a(5H)-yl)methoxy)pyrido[4,3-d]pyrimidin-4-yl)-3,8-diazabicyclo[3.2.1]octan-8-yl)-2-fluoro-3-(5-methylpyridin-2-yl)prop-2-en-1-one] the figure was 45 nM. Turning to `N#CC[C@H]1CN(c2nc(OC[C@@]34CCCN3C[C@H](F)C4)nc3c(F)c(-c4cccc(F)c4C(F)(F)F)ncc23)CCN1C(=O)/C(F)=C/c1nccs1` [Example 71, 2-((S)-1-((Z)-2-fluoro-3-(thiazol-2-yl)acryloyl)-4-(8-fluoro-7-(3-fluoro-2-(trifluoromethyl)phenyl)-2-(((2R, 7aS)-2-fluorotetrahydro-1H-pyrrolizin-7a(5H)-yl)methoxy)pyrido[4,3-d]pyrimidin-4-yl)piperazin-2-yl)acetonitrile], the IC50 worked out at 40 nM. As for `C#Cc1cccc2cccc(-c3ncc4c(N5CCN(C(=O)/C(F)=C/c6ncccn6)CC5)nc(OC[C@@]56CCCN5C[C@H](F)C6)nc4c3F)c12` [Compound 123, (Z)-1-(4-(7-(8-ethynylnaphthalen-1-yl)-8-fluoro-2-(((2R, 7aS)-2-fluorotetrahydro-1H-pyrrolizin-7a(5H)-yl)methoxy)pyrido[4,3-d]pyrimidin-4-yl)piperazin-1-yl)-2-fluoro-3-(pyrimidin-2-yl)prop-2-en-1-one], the figure is 187 nM; as for `C#Cc1cccc2cccc(-c3ncc4c(N5CCN(C(=O)/C(F)=C/c6ccccn6)CC5)nc(OC[C@@]56CCCN5C[C@H](F)C6)nc4c3F)c12` [Example 29, (Z)-1-(4-(7-(8-ethynylnaphthalen-1-yl)-8-fluoro-2-(((2R, 7aS)-2-fluorotetrahydro-1H-pyrrolizin-7a(5H)-yl)methoxy)pyrido[4,3-d]pyrimidin-4-yl)piperazin-1-yl)-2-fluoro-3-(pyridin-2-yl)prop-2-en-1-one], 100 nM. In the case of `C#Cc1cccc2cccc(-c3ncc4c(N5CCN(C(=O)/C(F)=C/c6ccccn6)CC5)nc(OC[C@@H]5CCCN5C)nc4c3F)c12` [Example 25, (S,Z)-1-(4-(7-(8-ethynylnaphthalen-1-yl)-8-fluoro-2-((1-methylpyrrolidin-2-yl)methoxy)pyrido[4,3-d]pyrimidin-4-yl)piperazin-1-yl)-2-fluoro-3-(pyridin-2-yl)prop-2-en-1-one], the half-maximal inhibitory concentration (IC50) is 290 nM.

In the case of `N#Cc1cccc2cccc(-c3ncc4c(N5CCN(C(=O)/C(F)=C/c6nccs6)CC5)nc(OC[C@@]56CCCN5C[C@H](F)C6)nc4c3F)c12` [Example 50, 8-(8-fluoro-4-(4-((Z)-2-fluoro-3-(thiazol-2-yl)acryloyl)piperazin-1-yl)-2-(((2R, 7aS)-2-fluorotetrahydro-1H-pyrrolizin-7a(5H)-yl)methoxy)pyrido[4,3-d]pyrimidin-7yl)-1-naphthonitrile], the IC50 was found to be 840 nM. `C#Cc1c(F)c(F)cc2cccc(-c3ncc4c(N5CCN(C(=O)/C(F)=C/c6ncccn6)CC5)nc(OC[C@@]56CCCN5C[C@H](F)C6)nc4c3F)c12` [Compound 98, (Z)-1-(4-(7-(8-ethynyl-6,7-difluoronaphthalen-1-yl)-8-fluoro-2-(((2R, 7aS)-2-fluorotetrahydro-IH-pyrrolizin-7a(5H)-yl)methoxy)pyrido[4,3-d]pyrimidin-4-yl)piperazin-1-yl)-2-fluoro-3-(pyrimidin-2-yl)prop-2-en-1-one]: the IC50 was found to be 91 nM.
